Experimental data published in ChEMBL document CHEMBL1201862, “PubChem BioAssay data set” (2004).
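A five-concentration, 48-hour dose response in 96-well plates underlies each endpoint, interpolated linearly between surrounding concentrations. GI50: concentration for 50% inhibition of growth.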 Activity calls are given as the source filed them. Cut-off read from the data, not from the text of the source: active = GI50 up to about 1.1 µM and inactive = higher.

Experiments:
Test in all cases: DTP human tumour cell line panel, 48 h
[1] = test system: ACHN
[2] = test system: HCT-15
[3] = test system: K562
[4] = test system: LOX IMVI
[5] = test system: MCF7
[6] = test system: Malme-3M
[7] = test system: NCI-H226
[8] = test system: NCI-H23
[9] = test system: OVCAR-3
[10] = test system: OVCAR-4
[11] = test system: OVCAR-5
[12] = test system: RPMI-8226
[13] = test system: RXF 393
[14] = test system: SF-539
[15] = test system: SNB-75
[16] = test system: SW-620
[17] = test system: U-251
[18] = test system: UACC-62
[19] = test system: UO-31
[20] = test system: CAKI-1

`CC(C)NC(=O)OCc1c2c(n(C)c1COC(=O)NC(C)C)-c1cc(Cl)c(Cl)cc1CC2` was tested, and the GI50 [1] was 34.2 µM (inactive), the GI50 [2] was 23.8 µM and the GI50 [3] was 16.6 µM (inactive). The GI50 [4] was 38.3 µM (inactive), the GI50 [5] was 15.8 µM (inactive) and the GI50 [6] was 49.3 µM (inactive). For the same compound, the GI50 [7] was 8.91 µM (inactive), the GI50 [8] was 22.1 µM (inactive) and the GI50 [9] was 29.1 µM (inactive). For the same compound, the GI50 [10] was 64.6 µM (inactive), the GI50 [11] was 25.8 µM (inactive) and the GI50 [12] was 23.4 µM (inactive). For the same compound, the GI50 [13] was 21.7 µM (inactive), the GI50 [14] was 50.2 µM (inactive) and the GI50 [15] was 29.4 µM (inactive). For the same compound, the GI50 [16] was 45.7 µM (inactive), the GI50 [17] was 18.2 µM (inactive) and the GI50 [18] was 43.9 µM (inactive). For the same compound, the GI50 [19] was 27 µM (inactive).
In the case of `O=S(=O)(O)c1cc(S(=O)(=O)O)c2c(Nc3ccnc4ccccc34)ccc(S(=O)(=O)O)c2c1`, the GI50 [1] is reported as > 100 µM (inactive), the GI50 [20] is reported as > 100 µM (inactive) and the GI50 [2] is reported as over 100 µM. The GI50 [4] was > 100 µM (inactive), the GI50 [5] was > 100 µM (inactive) and the GI50 [6] was > 100 µM (inactive). For the same compound, the GI50 [7] was > 100 µM (inactive), the GI50 [8] was > 100 µM (inactive) and the GI50 [9] was > 100 µM (inactive). The GI50 [10] was > 100 µM (inactive), the GI50 [11] was > 100 µM (inactive) and the GI50 [12] was > 100 µM (inactive). For the same compound, the GI50 [13] was > 100 µM (inactive), the GI50 [14] was > 100 µM (inactive) and the GI50 [15] was > 100 µM (inactive). For the same compound, the GI50 [16] was > 100 µM (inactive), the GI50 [17] was > 100 µM (inactive) and the GI50 [18] was > 100 µM (inactive). The GI50 [19] was > 100 µM (inactive).
In the case of `COC(=O)C1CC23C=CCN4CC(C2C)C2(c5ccccc5NC12)C43` (configuration not stated), the GI50 [1] is reported as > 100 µM (inactive), the GI50 [20] is reported as > 100 µM (inactive) and the GI50 [2] is reported as over 100 µM. For the same compound, the GI50 [3] was > 100 µM (inactive), the GI50 [4] was > 100 µM (inactive) and the GI50 [5] was > 100 µM (inactive). The GI50 [6] was > 100 µM (inactive), the GI50 [7] was > 100 µM (inactive) and the GI50 [8] was > 100 µM (inactive). For the same compound, the GI50 [9] was > 100 µM (inactive), the GI50 [10] was > 100 µM (inactive) and the GI50 [11] was > 100 µM (inactive). For the same compound, the GI50 [12] was > 100 µM (inactive), the GI50 [13] was > 100 µM (inactive) and the GI50 [14] was > 100 µM (inactive). For the same compound, the GI50 [15] was 87.7 µM (inactive), the GI50 [16] was > 100 µM (inactive) and the GI50 [17] was > 100 µM (inactive). The GI50 [18] was > 100 µM (inactive).
For `O=C(Nc1cnc(O)nc1O)C(Cl)Cl`, the GI50 [1] was > 100 µM (inactive), the GI50 [20] was > 100 µM (inactive) and the GI50 [2] was over 100 µM. The GI50 [3] was > 100 µM (inactive), the GI50 [4] was > 100 µM (inactive) and the GI50 [5] was > 100 µM (inactive). The GI50 [6] was > 100 µM (inactive), the GI50 [7] was > 100 µM (inactive) and the GI50 [8] was > 100 µM (inactive). The GI50 [9] was > 100 µM (inactive), the GI50 [10] was > 100 µM (inactive) and the GI50 [12] was > 100 µM (inactive). The GI50 [13] was > 100 µM (inactive), the GI50 [14] was > 100 µM (inactive) and the GI50 [15] was > 100 µM (inactive). The GI50 [16] was > 100 µM (inactive), the GI50 [17] was > 100 µM (inactive) and the GI50 [18] was > 100 µM (inactive). For the same compound, the GI50 [19] was > 100 µM (inactive).
In the case of `Cc1ccc(C(=O)N/N=C(\N=N\c2ccc([N+](=O)[O-])cc2)c2ccc(N(CCC#N)CCC#N)cc2C)cc1`, the GI50 [1] is reported as > 100 µM (inactive), the GI50 [20] is reported as > 100 µM (inactive) and the GI50 [2] is reported as over 100 µM. The GI50 [3] was 66.2 µM (inactive), the GI50 [4] was 60.8 µM (inactive) and the GI50 [5] was 83.6 µM (inactive). The GI50 [6] was > 100 µM (inactive), the GI50 [7] was 31.3 µM (inactive) and the GI50 [8] was > 100 µM (inactive). For the same compound, the GI50 [9] was 39.6 µM (inactive), the GI50 [10] was 99.8 µM (inactive) and the GI50 [11] was > 100 µM (inactive). For the same compound, the GI50 [12] was > 100 µM (inactive), the GI50 [13] was 16.7 µM (inactive) and the GI50 [14] was > 100 µM (inactive). For the same compound, the GI50 [15] was 43.7 µM (inactive), the GI50 [16] was > 100 µM (inactive) and the GI50 [17] was > 100 µM (inactive). For the same compound, the GI50 [19] was 86.7 µM (inactive).
For `CCOC(CN(C)C(=S)Nc1cccc2ccccc12)OCC`, the GI50 [1] was > 10 µM (inactive), the GI50 [20] was > 10 µM (inactive) and the GI50 [2] was over 10 µM. For the same compound, the GI50 [3] was > 10 µM (inactive), the GI50 [4] was > 10 µM (inactive) and the GI50 [5] was > 10 µM (inactive). The GI50 [6] was > 10 µM (inactive), the GI50 [7] was > 10 µM (inactive) and the GI50 [8] was > 10 µM (inactive). For the same compound, the GI50 [9] was > 10 µM (inactive), the GI50 [10] was > 10 µM (inactive) and the GI50 [12] was > 10 µM (inactive). For the same compound, the GI50 [13] was > 10 µM (inactive), the GI50 [14] was > 10 µM (inactive) and the GI50 [15] was > 10 µM (inactive). For the same compound, the GI50 [16] was > 10 µM (inactive), the GI50 [17] was > 10 µM (inactive) and the GI50 [18] was > 10 µM (inactive). The GI50 [19] was > 10 µM (inactive).
`CCCCOc1ccc(NC(=N)Nc2ccc(Cl)cc2)cc1` was tested, and the GI50 [1] was 0.462 µM (active), the GI50 [2] was 9.35 µM and the GI50 [3] was 3.01 µM (inactive). The GI50 [4] was 3.05 µM (inactive), the GI50 [5] was 0.135 µM (active) and the GI50 [6] was 3.47 µM (inactive). The GI50 [7] was 12.7 µM (inactive), the GI50 [8] was 1.09 µM (active) and the GI50 [9] was 10.2 µM (inactive). The GI50 [10] was 1.84 µM (inactive), the GI50 [11] was 1.68 µM (inactive) and the GI50 [12] was 3.89 µM (inactive). For the same compound, the GI50 [13] was 11.5 µM (inactive), the GI50 [14] was 0.558 µM (active) and the GI50 [15] was 4.47 µM (inactive). The GI50 [16] was 1.03 µM (active), the GI50 [17] was 9.68 µM (inactive) and the GI50 [18] was 12.3 µM (inactive). For the same compound, the GI50 [19] was 2.43 µM (inactive).
For `Fc1ccc2nc3n(c2c1)C(c1c(Cl)cccc1Cl)SC3` (configuration not stated), the GI50 [1] was > 100 µM (inactive), the GI50 [20] was > 100 µM (inactive) and the GI50 [2] was over 100 µM. For the same compound, the GI50 [4] was > 100 µM (inactive), the GI50 [5] was > 100 µM (inactive) and the GI50 [6] was > 100 µM (inactive). For the same compound, the GI50 [7] was > 100 µM (inactive), the GI50 [8] was > 100 µM (inactive) and the GI50 [9] was > 100 µM (inactive). The GI50 [10] was > 100 µM (inactive), the GI50 [11] was > 100 µM (inactive) and the GI50 [12] was > 100 µM (inactive). For the same compound, the GI50 [13] was > 100 µM (inactive), the GI50 [14] was > 100 µM (inactive) and the GI50 [15] was 63.4 µM (inactive). For the same compound, the GI50 [16] was > 100 µM (inactive), the GI50 [17] was > 100 µM (inactive) and the GI50 [18] was > 100 µM (inactive). The GI50 [19] was > 100 µM (inactive).
